Assay results from patent US9133228B2, “Guanidinyl-substituted polyamides useful for treating human papilloma virus” (Nanovir, LLC, priority 2011, dated 2015).

Columns and labels:
HPV16 = test: Inhibition of viral replication in cells that maintain HPV16 DNA, viral DNA quantified by real-time PCR; format: cell-based, Human papilloma virus; details: cells maintaining HPV16 cultured 72 hours with polyamide; vs DMSO control; highest dose tested 10 μM
From the text: (§1) Table 1a lists a number of exemplary polyamides synthesized in accordance with the present invention. The HPLC/MW values given in Table 1b were obtained using low resolution high pressure liquid chromatography/mass spectrometry (LR HPLC/MS), which provides moderate precision masses of single isotopomers rather than average molecular weights or exact masses. Table 2 presents a summary of measured IC50 values of certain of these polyamides against HPV16, HPV18 and HPV31. The IC50 is the concentration of compound required for 50% inhibition of viral replication in vitro. The polyamides were tested in cells that maintain HPV16, HPV18 or HPV31 DNA. Cells maintaining the selected HPV were cultured for 72 hours in the presence of the polyamide. Viral DNA was then quantified using real-time PCR and compared to vehicle (DMSO)-treated control cultures. […] Table 3 presents a summary of measured IC50 and IC90 values of certain of these polyamides against HPV16, HPV18 and HPV31.

HPV18 = test: Inhibition of viral replication in cells that maintain HPV18 DNA, viral DNA quantified by real-time PCR; format: cell-based, Human papilloma virus; details: cells maintaining HPV18 cultured 72 hours with polyamide; vs DMSO control; highest dose tested 10 μM
From the text: as §1

HPV31 = test: Inhibition of viral replication in cells that maintain HPV31 DNA, viral DNA quantified by real-time PCR; format: cell-based, Human papilloma virus; details: cells maintaining HPV31 cultured 72 hours with polyamide; vs DMSO control; highest dose tested 10 μM
From the text: as §1

[1] = tested on: sequence of HPV16 (365 bp: 7662-122); test: DNase I footprinting experiment; format: binding, Human papilloma virus; details: polyamide 2 nM and 5 nM; DNA 200 pM; DMSO and CHAPS; 37° C. for 5-6 hrs
Protocol: FIG. 9 illustrates a footprinting experiment of NV1087 on a sequence of HPV16 (365 bp: 7662-122). All reactions were carried out in presence of DMSO and CHAPS, and the final DNA concentration was 200 pM. The polyamide concentration varied (2 nM and 5 nM). Reactions were incubated with polyamide at 37° C. for 5-6 hrs.

Row | IC50 (HPV16) [nM] | IC50 (HPV18) [nM] | IC50 (HPV31) [nM] | Compound | protection of DNA from digestion by DNase I (decrease in peak heights) [1]
1 | 24 | 36 | 35 | CN(CCCN)CCCNC(=O)CCNC(=O)c1cc(NC(=O)CCNC(=O)c2cc(NC(=O)c3cc(NC(=O)c4cc(NC(=O)CCNC(=O)c5cc(NC(=O)c6cc(NC(=O)CCNC(=O)c7cc(NC(=O)[C@H](N)CCNC(=O)c8nc(NC(=O)c9cc(NC(=O)CCNC(=O)c%10cc(NC(=O)c%11cc(NC(=O)CCNC(=O)c%12cc(NC(=O)c%13cc(N=C(N(C)C)N(C)C)cn%13C)cn%12C)cn%11C)cn%10C)cn9C)cn8C)cn7C)cn6C)cn5C)cn4C)cn3C)cn2C)cn1C [NV1096, TMG-PyPyβPyPyβPyIm-γNH2-PyβPyPyβPyPyPyβPβ-Ta•5TFA] | –
2 | 267 | 405 | 220 | CN(CCCN)CCCNC(=O)CCNC(=O)c1cc(NC(=O)CCNC(=O)c2cc(NC(=O)c3cc(NC(=O)c4cc(NC(=O)CCNC(=O)c5cc(NC(=O)c6cc(NC(=O)CCNC(=O)c7cc(NC(=O)[C@H](N)CCNC(=O)c8nc(NC(=O)c9cc(NC(=O)CCNC(=O)c%10cc(NC(=O)c%11cc(NC(=O)CCNC(=O)c%12cc(NC(=O)c%13cc(NC(=O)c%14cc(N=C(N(C)C)N(C)C)cn%14C)cn%13C)cn%12C)cn%11C)cn%10C)cn9C)cn8C)cn7C)cn6C)cn5C)cn4C)cn3C)cn2C)cn1C [NV1073, TMG-PyPyPyβPyPyβPyIm-γNH2-PyβPyPyβPyPyPyβPyβ-Ta•5TFA] | –
3 | 109 | 216 | 96 | CN(CCCN)CCCNC(=O)CCNC(=O)c1cc(NC(=O)CCNC(=O)c2cc(NC(=O)c3cc(NC(=O)c4cc(NC(=O)CCNC(=O)c5cc(NC(=O)c6cc(NC(=O)CCNC(=O)c7cc(NC(=O)[C@@H](CCNC(=O)c8nc(NC(=O)c9cc(NC(=O)CCNC(=O)c%10cc(NC(=O)c%11cc(NC(=O)CCNC(=O)c%12cc(NC(=O)c%13cc(NC(=O)c%14cc(N=C(N(C)C)N(C)C)cn%14C)cn%13C)cn%12C)cn%11C)cn%10C)cn9C)cn8C)NC(=O)NCCCN(C)CCCN)cn7C)cn6C)cn5C)cn4C)cn3C)cn2C)cn1C [NV1072, TMG-PyPyPyβPyPyβPyIm-γNHR′-PyβPyPyβPyPyPyβPyβ-Ta•6TFA] | –

Row | Compound | IC50 (HPV16) [nM] | IC50 (HPV18) [nM] | IC50 (HPV31) [nM] | protection of DNA from digestion by DNase I (decrease in peak heights) [1]
4 | CN(CCCN)CCCNC(=O)CCNC(=O)c1cc(NC(=O)CCNC(=O)c2cc(NC(=O)c3cc(NC(=O)c4cc(NC(=O)CCNC(=O)c5cc(NC(=O)c6cc(NC(=O)CCNC(=O)c7cc(NC(=O)CCCNC(=O)c8nc(NC(=O)c9cc(NC(=O)CCNC(=O)c%10cc(NC(=O)c%11cc(NC(=O)CCNC(=O)c%12cc(NC(=O)c%13cc(NC(=O)c%14cc(N=C(N(C)C)N(C)C)cn%14C)cn%13C)cn%12C)cn%11C)cn%10C)cn9C)cn8C)cn7C)cn6C)cn5C)cn4C)cn3C)cn2C)cn1C.O=C(O)C(F)(F)F.O=C(O)C(F)(F)F.O=C(O)C(F)(F)F.O=C(O)C(F)(F)F [NV1087, TMG-PyPyPyβPyPyβPyIm-γ-PyβPyPyβPyPyPyβPyβ-Ta•4TFA] | 31 | 24 | 16 | protects the DNA from digestion by DNase I
